Reference: patent publication US9976146B2, “Aptamer targeting MAGE-A3 peptide and uses thereof” (Academia Sinica, priority 2014, dated 2018)

How the values were obtained:
MAGE-A3111-125 peptide [1] = target: T1, MAGE-A3111-125 peptide (Homo sapiens, UniProt P43357); experiment: Peptide-magnetic bead binding assay with elution and PCR amplification (FIG. 1); conditions: peptide on streptavidin-coupled magnetic beads
Text: FIG. 1 is a photograph illustrating the PCR results of the binding affinity and specificity between Ap52 of Example 2 and specified peptides, in which peptide MAGE-A3111-125 (+), NY-ESO-1119-143 (N1), NY-ESO-1157-170 (N2), NY-ESO-187-111 (N3), or no peptide (−) were reacted with Ap52, followed by elution and PCR amplification; PB served as a control of oligonucleotide aptamer;
A total of ninety-four different sequences were obtained and further assayed individually for its binding affinity and specificity to MAGE-A3111-125. Plasmid DNA was first amplified by use of anchored PCR, as described above. The resulting ssDNA products were purified through 12% denaturing PAGE and incubated with the biotinylated peptide MAGE-A3111-125, which was pre-incubated with the streptavidin-coupled magnetic beads and thus formed a peptide-magnetic bead complex through the streptavidin-biotin interaction. The sequences that bound specifically to the peptide MAGE-A3111-125 were isolated by the magnet and subject to further purification, as the procedure described in library selection.
Thus, Ap52 is highly specific in terms of binding with MAGE-A3111-125 peptide.

MAGE-A3111-125 peptide [2] = target: T1, MAGE-A3111-125 peptide; experiment: Isothermal titration calorimetry (ITC) for dissociation constant (Kd) determination; format: binding
Method: Isothermal Titration Calorimetry (ITC) for Dissociation Constant (Kd) Determination
Thermodynamic profile of the interaction between DNA and peptide was measured with a MicroCal iTC200 (GE Healthcare Life Sciences) at 25° C. in washing buffer (0.45% glucose, 5 mM MgCl2, in Dulbecco's Phosphate-Buffered Saline). The unmodified MAGE-A3111-125 peptide (0.3 mM, 200 μl) was titrated with 18 successive injections of 2 μl aptamer (0.1 mM) at 150 s intervals. The data were analyzed using MicroCal Origin 7 and fit with a one-set-of sites binding model to obtain values of enthalpy change (AH) and association constant (Ka).
Isothermal titration calorimetry (ITC) is a technique used to measure the thermodynamic profile of the interactions between two molecules, and thus can be used to determine the respective binding affinities of Ap16 and Ap52 to MAGE-A3111-125 peptide. […] Therefore, both Ap52 and Ap16 are effective in targeting MAGE-A3111-125-peptide.

[3] = ITC at 25° C. in washing buffer, one-set-of sites binding model

## Ap16-control: 16-nucleotide region (SEQ ID NO: 7) from another oligonucleotide selected from SELEX, used as a negative control (ATCATTCGGATGTGTG; listed as DNA, chemistry not fully specified)
MAGE-A3111-125 peptide [1]
  binding to MAGE-A3111-125 peptide: failed to bind

## Ap16: oligonucleotide aptamer of 16 nucleotides AGCACTCAATATTCCC (SEQ ID NO: 1), central randomized region of Ap52 (listed as DNA, chemistry not given here)
MAGE-A3111-125 peptide [2]; [3]
  Kd: 95 nM
  ΔH (enthalpy change): -41 kcal/mol
MAGE-A3111-125 peptide [2]; general statement on binding to the MAGE-A3 peptide
  Kd values, in words: nanomolar range
